Assay results reported in US20120197059A1, “UBIQUITIN INTERACTING MOTIF PEPTIDES AS CANCER THERAPEUTICS” (priority 2011, published 2012).

Legend:
VEGFR-2 = test: VEGF signaling assay with Dynasore, western blotting; format: cell-based, human; details: HUVEC, 40 or 80 μM Dynasore, VEGF-A 50 ng/ml
retina angiogenesis = test: Retinal angiogenic sprouting in EC-iDKO P6 pups, isolectin B4 staining; format: in vivo, mice; details: IP/intraocular injection
Method: Immunohistochemistry and immunofluorescence of tissue samples. Immunohistochemistry and immunofluorescence were performed as described with modifications (Chen et al., 1998; Chen et al., 2009). • E9/10 Hind Brain: Embryos were harvested at E9 or E10 and fixed. Hindbrain was harvested and processed for staining with anti-CD31 and donkey anti-rat Alex Fluor 488 secondary antibody. • P6 Skin: Wild-type or EC-iDKO pups were injected intraperitoneally with 5 mg/kg (body weight) of 4-hydroxytamoxifen (10 mg/ml of 4-Hydroxytamoxifen resuspended in 10% of ethanol and 90% of DMSO) per day from postnatal day 1 (P1) to P3. Pups were euthanized at P6 and skin from abdomen was harvested and processed for whole mount staining with anti-CD31 and donkey anti-rat Alexa Fluor 488 secondary antibody. • P6 Retina: Wild-type or EC-iDKO Pups were injected with 4-hydroxytamoxifen as described above per day from postnatal day 2 (P2) to P4. P6 pups were euthanized and whole eyes harvested. […]
Receptor tyrosine kinase inhibitors injection. […] For western blot analysis, skin and heart tissues were collected from WT P6 pups injected either with DMSO or inhibitors and analyzed for phospho-Akt and total Akt.

DKO MECs = test: BrdU labeling of mouse endothelial cells; format: cell-based
Method: BrdU labeling. BrdU labeling of Mouse Endothelial Cells. WT and DKO MECs were grown in a 48-well plate until they reached 50% percent confluency. Cells were starved overnight and stimulated with growth factors or growth factors plus inhibitors for 6 h. BrdU labeling and detection kit (Roche) was then used to label the proliferating cells. Briefly, cells were incubated with BrdU labeling medium (1:500 diluted in medium) for 3 h. Cells were washed three times with wash buffer and fixed with ethanol for 20 min at −20° C. followed by washing the cells three times with wash buffer and incubated with 6M HCl/0.1% Triton for 30 minutes at room temperature. This was followed by six washes with PBS/0.1% Triton. Cells were blocked with PBS/0.3% Triton/3% BSA/3% donkey serum for 30 min at room temperature followed by incubation with anti-BrdU working solution for 30 minutes at 37° C. After three washes with wash buffer cells were again incubated with donkey anti-mouse Ig-fluorescein for 30 minutes at 37° C. After washing the cells three times with wash buffer they were stained with DAPI and visualized using Olympus Fluorescent microscope. Percentage of proliferating cells was calculated based on the ratio of BrdU-positive cells versus DAPI-positive cells.

gliomas = details: given before, at the time of or after tumor implantation; cited from earlier work
[1] = cited from earlier work
[2] = free acid; cited from earlier work
[3] = in vivo; cited from earlier work

Question: With `O=C(N/N=C/c1ccc(O)c(O)c1)c1cc2ccccc2cc1O` [Dynasore] as the compound, how does the “total levels of VEGFR-2 and phosphorylation of VEGFR-2 and its downstream signaling effectors” value (VEGFR-2) read?
Answer: The value was “dramatically increased”.

Question: Which “elevated angiogenic sprouting in EC-iDKO retina” value (retina angiogenesis) does the source give for `CC(C)c1cc(/C=C(\C#N)C(=O)NCCCc2ccccc2)cc(C(C)C)c1O` [inhibitors to VEGFR-2] here?
Answer: Its value is “reversed”.

Question: And the “VEGF-increased proliferation of DKO MECs” value (DKO MECs)?
Answer: The value was “abrogated”.

Question: Which results are given for `CC(C)(C)[N+]([O-])=Cc1ccccc1` [PBN, phenyl N-tert-butyl nitrone]?
Answer: glioma tumor development (gliomas): able to control tumor development; tissue distribution ([1]; rat, in vivo): readily and rapidly distributed almost equally to all tissues; half-life ([1]; rats): about 132 minutes

Question: Which solubility in water [2] does the source give for `CC(C)(C)[N+]([O-])=Cc1ccc(S(=O)(=O)O)cc1S(=O)(=O)O` [2,4-ds PBN, 2,4-disulfonyl phenyl-tert-butyl nitrone] here?
Answer: Its solubility in water is “greater than 1 gram/ml”.

Question: What about the “efficacy as compared to PBN” value [3] of the same compound?
Answer: The value was “unexpected increase”.

Question: What about the “potency as compared to PBN” value [3] of the same compound?
Answer: Its value is “increase in potency”.

Question: And the “toxicity as compared to PBN” value [3]?
Answer: Its value is “marked and highly significant decrease”.
